Reference: ChEMBL document CHEMBL1201862, “PubChem BioAssay data set” (2004)
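These data come from cells grown in 96-well plates and exposed to compound for 48 hours at five concentrations. GI50 marks 50% less growth.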 Activity calls are given as the source filed them. No stated cut-off is given here; in the data, active = GI50 up to about 1.1 µM and inactive = higher.

What was measured:
Assay in all cases: inhibition of tumour cell growth, NCI panel, 48 h
[1] = system: A549
[2] = system: ACHN
[3] = system: CCRF-CEM
[4] = system: COLO 205
[5] = system: DLD-1
[6] = system: DMS-273
[7] = system: EKVX
[8] = system: HCC 2998
[9] = system: HCT-116
[10] = system: HCT-15
[11] = system: HL-60
[12] = system: HOP-18
[13] = system: HOP-92
[14] = system: IGROV-1
[15] = system: K562
[16] = system: KM-20L2
[17] = system: KM12
[18] = system: LOX IMVI
[19] = system: LXFL 529
[20] = system: M19-MEL
[21] = system: MOLT-4
[22] = system: Malme-3M
[23] = system: NCI-H23
[24] = system: NCI-H460
[25] = system: NCI-H522
[26] = system: OVCAR-5
[27] = system: OVCAR-8
[28] = system: RPMI-8226
[29] = system: RXF 393
[30] = system: SF-268
[31] = system: SF-295
[32] = system: SF-539
[33] = system: SK-MEL-28
[34] = system: SK-MEL-2
[35] = system: SK-OV-3
[36] = system: SN12C
[37] = system: SNB-19
[38] = system: SNB-78
[39] = system: SR
[40] = system: SW-620
[41] = system: TK-10
[42] = system: U-251
[43] = system: UACC-257
[44] = system: UACC-62
[45] = system: UO-31
[46] = system: 786-0
[47] = system: A498
[48] = system: CAKI-1
[49] = system: DMS-114
[50] = system: HOP-62
[51] = system: HT-29
[52] = system: M14
[53] = system: NCI-H226
[54] = system: OVCAR-3
[55] = system: OVCAR-4
[56] = system: SK-MEL-5
[57] = system: SNB-75

Q: `CO[C@H]1ON=C(c2c(C)cc(C)cc2C)[C@@H]1C1(c2ccccc2)ON=C(c2c(C)cc(C)cc2C)O1` (stereo not given in full) was tested. Which GI50 [1] did it give?
A: > 100 µM (inactive)

Q: And the GI50 [2]?
A: > 100 µM (inactive)

Q: And the GI50 [3]?
A: > 100 µM (inactive)

Q: And the GI50 [4]?
A: > 100 µM (inactive)

Q: What about the GI50 [5] of the same molecule?
A: > 100 µM (inactive)

Q: And the GI50 [6]?
A: > 100 µM (inactive)

Q: What about the GI50 [7] of the same molecule?
A: > 100 µM (inactive)

Q: What about the GI50 [8] of the same molecule?
A: > 100 µM (inactive)

Q: And the GI50 [9]?
A: > 100 µM (inactive)

Q: What about the GI50 [10] of the same molecule?
A: > 10 µM

Q: What about the GI50 [11] of the same molecule?
A: 46.3 µM (inactive)

Q: And the GI50 [12]?
A: > 100 µM (inactive)

Q: What about the GI50 [13] of the same molecule?
A: > 100 µM (inactive)

Q: What about the GI50 [14] of the same molecule?
A: > 100 µM (inactive)

Q: What about the GI50 [15] of the same molecule?
A: > 100 µM (inactive)

Q: And the GI50 [16]?
A: > 100 µM (inactive)

Q: What about the GI50 [17] of the same molecule?
A: > 100 µM (inactive)

Q: What about the GI50 [18] of the same molecule?
A: > 100 µM (inactive)

Q: And the GI50 [19]?
A: > 100 µM (inactive)

Q: What about the GI50 [20] of the same molecule?
A: > 100 µM (inactive)

Q: And the GI50 [21]?
A: 87.1 µM (inactive)

Q: What about the GI50 [22] of the same molecule?
A: > 100 µM (inactive)

Q: What about the GI50 [23] of the same molecule?
A: > 100 µM (inactive)

Q: And the GI50 [24]?
A: > 100 µM (inactive)

Q: What about the GI50 [25] of the same molecule?
A: > 100 µM (inactive)

Q: What about the GI50 [26] of the same molecule?
A: > 100 µM (inactive)

Q: What about the GI50 [27] of the same molecule?
A: > 100 µM (inactive)

Q: And the GI50 [28]?
A: 37.8 µM (inactive)

Q: What about the GI50 [29] of the same molecule?
A: > 100 µM (inactive)

Q: And the GI50 [30]?
A: > 100 µM (inactive)

Q: And the GI50 [31]?
A: > 100 µM (inactive)

Q: What about the GI50 [32] of the same molecule?
A: > 100 µM (inactive)

Q: And the GI50 [33]?
A: > 100 µM (inactive)

Q: And the GI50 [34]?
A: > 100 µM (inactive)

Q: What about the GI50 [35] of the same molecule?
A: > 100 µM (inactive)

Q: And the GI50 [36]?
A: > 100 µM (inactive)

Q: What about the GI50 [37] of the same molecule?
A: > 100 µM (inactive)

Q: What about the GI50 [38] of the same molecule?
A: > 100 µM (inactive)

Q: What about the GI50 [39] of the same molecule?
A: > 100 µM (inactive)

Q: And the GI50 [40]?
A: > 100 µM (inactive)

Q: What about the GI50 [41] of the same molecule?
A: > 100 µM (inactive)

Q: What about the GI50 [42] of the same molecule?
A: > 100 µM (inactive)

Q: And the GI50 [43]?
A: > 100 µM (inactive)

Q: And the GI50 [44]?
A: > 100 µM (inactive)

Q: And the GI50 [45]?
A: > 100 µM (inactive)

Q: `N=C(N)N/N=C/c1oc(-c2ccc(S(=O)(=O)O)o2)c(-c2ccc(S(=O)(=O)O)o2)c1[N+](=O)[O-]` was tested. Which GI50 [46] did it give?
A: > 100 µM (inactive)

Q: And the GI50 [47]?
A: > 100 µM (inactive)

Q: And the GI50 [1]?
A: > 100 µM (inactive)

Q: And the GI50 [2]?
A: > 100 µM (inactive)

Q: What about the GI50 [48] of the same molecule?
A: > 100 µM (inactive)

Q: What about the GI50 [3] of the same molecule?
A: > 100 µM (inactive)

Q: And the GI50 [4]?
A: > 100 µM (inactive)

Q: What about the GI50 [5] of the same molecule?
A: > 100 µM (inactive)

Q: And the GI50 [49]?
A: > 100 µM (inactive)

Q: What about the GI50 [6] of the same molecule?
A: > 100 µM (inactive)

Q: And the GI50 [7]?
A: > 100 µM (inactive)

Q: What about the GI50 [8] of the same molecule?
A: > 100 µM (inactive)

Q: And the GI50 [9]?
A: > 100 µM (inactive)

Q: And the GI50 [10]?
A: > 100 µM

Q: And the GI50 [11]?
A: > 100 µM (inactive)

Q: What about the GI50 [12] of the same molecule?
A: > 100 µM (inactive)

Q: And the GI50 [50]?
A: > 100 µM (inactive)

Q: And the GI50 [13]?
A: > 100 µM (inactive)

Q: And the GI50 [51]?
A: > 100 µM (inactive)

Q: What about the GI50 [14] of the same molecule?
A: > 100 µM (inactive)

Q: What about the GI50 [15] of the same molecule?
A: > 100 µM (inactive)

Q: What about the GI50 [16] of the same molecule?
A: > 100 µM (inactive)

Q: What about the GI50 [17] of the same molecule?
A: > 100 µM (inactive)

Q: What about the GI50 [18] of the same molecule?
A: > 100 µM (inactive)

Q: What about the GI50 [19] of the same molecule?
A: > 100 µM (inactive)

Q: And the GI50 [52]?
A: > 100 µM (inactive)

Q: What about the GI50 [20] of the same molecule?
A: > 100 µM (inactive)

Q: And the GI50 [21]?
A: > 100 µM (inactive)

Q: And the GI50 [22]?
A: > 100 µM (inactive)

Q: What about the GI50 [53] of the same molecule?
A: > 100 µM (inactive)

Q: What about the GI50 [23] of the same molecule?
A: > 100 µM (inactive)

Q: And the GI50 [24]?
A: > 100 µM (inactive)

Q: What about the GI50 [25] of the same molecule?
A: > 100 µM (inactive)

Q: What about the GI50 [54] of the same molecule?
A: > 100 µM (inactive)

Q: What about the GI50 [55] of the same molecule?
A: > 100 µM (inactive)

Q: What about the GI50 [26] of the same molecule?
A: > 100 µM (inactive)

Q: What about the GI50 [27] of the same molecule?
A: > 100 µM (inactive)

Q: And the GI50 [29]?
A: > 100 µM (inactive)

Q: And the GI50 [30]?
A: > 100 µM (inactive)

Q: And the GI50 [31]?
A: > 100 µM (inactive)

Q: What about the GI50 [32] of the same molecule?
A: > 100 µM (inactive)

Q: What about the GI50 [33] of the same molecule?
A: > 100 µM (inactive)

Q: What about the GI50 [34] of the same molecule?
A: > 100 µM (inactive)

Q: What about the GI50 [56] of the same molecule?
A: > 100 µM (inactive)

Q: And the GI50 [35]?
A: > 100 µM (inactive)

Q: And the GI50 [36]?
A: > 100 µM (inactive)

Q: What about the GI50 [37] of the same molecule?
A: > 100 µM (inactive)

Q: And the GI50 [57]?
A: > 100 µM (inactive)

Q: What about the GI50 [39] of the same molecule?
A: > 100 µM (inactive)

Q: What about the GI50 [40] of the same molecule?
A: > 100 µM (inactive)

Q: What about the GI50 [41] of the same molecule?
A: > 100 µM (inactive)

Q: What about the GI50 [42] of the same molecule?
A: > 100 µM (inactive)

Q: What about the GI50 [43] of the same molecule?
A: > 100 µM (inactive)

Q: What about the GI50 [44] of the same molecule?
A: > 100 µM (inactive)

Q: And the GI50 [45]?
A: > 100 µM (inactive)
